In series [1] the test system is p16 jTALE-DNMT (18-repeat TALE fused to DNMT3a-3L) (Xanthomonas TALE / DNMT3a-DNMT3L, engineered?). The series is described as follows: cell_activity. The following applies: primary human fibroblasts, lentivirus, 4 days, vs mutant; p16 mRNA decreased about 50%; also active in HeLa and hCASMC.
In another series the test system is human islets. Briefly: Immunofluorescent confocal analysis of Adox-treated human islets. The format is cell-based. As for the experimental part:
(§1) Human islets and islets from GlucagonCre; Rosa26EYFP bigenic mice (Herrera et al., 2000; Srinivas et al., 2001) were cultured, treated with 50μM adenosine dialdehyde (Adox, Sigma A7154) for 72 h, FACS sorted as described previously (11), or prepared for immunostaining.
Immunofluorescent confocal analysis was performed as described previously (Gao et al., Genes Dev. 2010, Jun. 15, 24(12): 1295-305). Sections were blocked with CAS-Block (Invitrogen, 00-8120) and stained using guinea pig anti-insulin 1:500 (Abcam, ab7842), rabbit anti-glucagon 1:250 (Santa Cruz, sc13091), guinea-pig anti-Pdx1 1:1000 (gift from Dr. C. Wright), mouse anti-E-Cadherin 1:500 (BD Transduction Laboratories, 610181), goat anti-GFP (Abcam, ab6673), guinea pig Cy2, guinea pig Cy5, rabbit Cy3, mouse Cy2, mouse Cy5, goat Cy3 (1:500, Jackson-Immunoresearch) antibodies. For quantification of double PDX1+/GCG+ cells, Pdx1-, Glucagon-, E-Cadherin and DAPI staining were performed on untreated (control) and Adox-treated islets. All glucagon-positive cells and all double PDX1+/GCG+ cells were counted manually (8 slides) in each condition and the percentage of PDX1+/GCG+ double-positive cells of all glucagon-positive cells was calculated.

Another series has as its system human β-cells. The series is described as follows: RNA-Seq of FACS-sorted β-cells from Adox-treated human islets. It is filed as cell-based. The following applies: Adox-treated β-cells (Adox-β/α vs β/α ratio). On the procedure: (§2) After total RNA extraction (see above), RNA-Seq libraries were prepared from sorted alpha, beta, and exocrine cells. The detailed protocol can be found on http://ngsc.med.upenn.edu (Lab protocol, Library preparation for RNA-Seq from total RNA). Libraries were single-end sequenced to 100 bp on an Illumina hiSeq2000. Reads from ribosomal RNA and genomic repeats were identified by aligning the 5′ 50 bp of each read to ribosomal sequences and the human repeats in RepBase (version 14.10) using Bowtie (Langmead B., Curr. Protoc. Bioinformatics. 201, December Chapter 11: Unit 117) and allowing for up to three mismatches. The remaining reads were processed with RUM (Grant et al., Bioinformatics 2011. Sep. 15, 27(18): 2518-28) and aligned to the set of known transcripts included in RefSeq, UCSC known genes, and ENSEMBL transcripts, and the human genome (hg18, NCBI build 36.1). Transcript-, exon-, and intron-level quantification was done using only the uniquely aligning reads. This process was repeated separately for each cell type and donor.
(§3) To analyze global gene expression profiles from each sample, RNA-seq read counts aligning to exons of mRNA transcripts in RefSeq were extracted, and these values were normalized to total uniquely aligning reads and transcript length (RPKM). Data for individual genes was summarized by selecting a “representative transcript” with the highest RPKM value for each gene symbol (total=18,822 genes). Gene-level data was then quantile-normalized across all samples to remove bias from the variable expression levels of highly expressed genes, e.g., insulin, glucagon, and highly expressed ncRNAs, which dampen the relative signal of all other genes. Finally, quantile-normalized gene expression values were averaged together for samples of the same cell type to produce a single average gene profile for each cell type. These values were used for all subsequent analyses, including expression comparisons for individual genes of interest.
as §1
(§4) To investigate the transcriptional changes in Adox-treated human islets and confirm increased PDX1 expression, FACS analysis after Adox-treatment was performed using the same antibody panel as described above, followed by RNA-Seq analysis (n=2 treated α, n=2 treated β, technical replicates) and focused on cell-type-specific hormones and transcription factors. To assess whether Adox-treated β-cells become more α-cell like or vice versa, the ratio of expression levels in untreated β-cells and untreated α-cells (β/α) were first compared to the ratio in Adox-treated β-cells and untreated α-cells (Adox-β/α) (FIG. 6E). A decrease in NKX6-1 and MAFA levels, an increase in PDX1 levels and no change in insulin expression were found and no change in the expression levels of the α-cell specific genes glucagon or ARX were observed, giving no indication for a gain of α-cell identity. Second, the ratio of expression values in untreated α-cells and untreated β-cells (α/β) were compared to the ratio in Adox-treated α-cells and untreated β-cells (Adox-α/β) to elucidate whether Adox-treated α-cells become more ‘β-cell like’ (FIG. 6F).

Another series concerns human α-cells. Briefly: RNA-Seq of FACS-sorted α-cells from Adox-treated human islets. The settings on record: Adox-treated α-cells (Adox-α/β vs α/β ratio). It is filed as cell-based. On the procedure: as §2, §3, §1, §4
The test system of series [2] is islets from GlucagonCre; Rosa26EYFP mice. The series is described as follows: Lineage tracing: immunostaining of Adox-treated islets from GlucagonCre; Rosa26EYFP mice. The format is cell-based. The following applies: mouse islets treated with Adox in vitro; not observed in control islets. As for the experimental part: as §1
Immunofluorescent confocal analysis was performed as described previously (Gao et al., Genes Dev. 2010, Jun. 15, 24(12): 1295-305). […] For quantification of double PDX1+/GCG+ cells, Pdx1-, Glucagon-, E-Cadherin and DAPI staining were performed on untreated (control) and Adox-treated islets. All glucagon-positive cells and all double PDX1+/GCG+ cells were counted manually (8 slides) in each condition and the percentage of PDX1+/GCG+ double-positive cells of all glucagon-positive cells was calculated.
A priori, the co-localization of glucagon with insulin could be due to α- to β-cell fate or β- to α-cell fate conversion. […] For this purpose, islets from GlucagonCre; Rosa26EYFP mice were treated, in which α-cells are permanently marked by yellow fluorescence protein (YFP) expression (27, 28) with Adox in vitro. […]

The test system of a further series is H3K27me3. The series is described as follows: H3K27me3 ChIP-Seq of whole human islets cultured in the absence or presence of Adox. It is filed as cell-based. As for the experimental part:
Chromatin immunoprecipitation and preparation of ChIP-Seq libraries was performed on individual cell sorts for each cell type and donor (H3K4me3: Abcam 8580, H3K27me3: Upstate 07-449).
Libraries for H3K4me3, H3K27me3, and input were sequenced on an Illumina GA-IIx to 36 bp. Reads were aligned to hg18 using ELAND. Up to two mismatches were allowed and only reads with a best alignment to a single location were used for further analysis. Enrichment of H3K4me3 was performed on individual donors and cell types using GLITR (FDR=5%) (32) and a pool of human input from various tissues. GLITR was also run on islet cell input samples and any peaks identified in the inputs were filtered from the H3K4me3 enriched regions. Enriched regions in the H3K27me3 data were identified using the program STAR (33) with a sliding window of 5,000 bp, step size of 1,000 bp, and a FDR=0.5%. To ensure fair comparison, H3K4me3 and H3K27me3 profiles from CD4-positive T-cells (23) were determined using the same algorithms and settings.
as §1
The high incidence of bivalent marks in α-cells, the interesting bivalent pattern of β-cell and α-cell-specific transcription factors in α-cells, and the large overlap with bivalently-marked transcriptional regulators in hESC raised the likelihood that epigenomic manipulations could be exploited to reprogram human α-cells towards the β-cell phenotype. Several drugs, such as adenosine dialdehyde (Adox) and 3-Deazaneplanocin A (DZNep) interfere with histone methylation (24). The general histone methyltransferase inhibitor Adox, which amongst others decreases H3K27me3 levels (24), was employed to test whether modulation of the histone methylation status of human pancreatic islets could promote reprogramming. […]

In series [3] the test system is p16 TALE-DNMT (24-repeat TALE fused to DNMT3a-3L) (Xanthomonas TALE / DNMT3a-DNMT3L, engineered?). The series is described as follows: cell_activity. The settings on record: HeLa transfection, 48 h, bisulfite sequencing, vs E752A mutant; up to 66.5% at individual CpGs.
The mark [4] stands for this setting: whole human islets, 50μM Adox 72 h vs untreated.

“Also recorded” adds a separate entry of the source.

“TCCTTGCCAACGCTGGCT (double strand) [CDKN2A (p16) promoter jTALE target, 18 bp]” showed an activity (% average increase in CpG methylation) in series [1] of 10.
With `Nc1ncnc2c1ncn2C(C=O)OC(C=O)CO` (stereo not shown) [Adox, adenosine dialdehyde], in the series with human islets (50μM Adox 72 h, not seen in untreated islets), the “co-localization of glucagon and insulin granules within the same islet cell” value was “occasional co-occurrence of glucagon and insulin granules within the same islet cell; also recorded: co-localization of glucagon and insulin granules within the same cell; also recorded: co-localization of glucagon and insulin granules in pancreatic cells”. Besides, in the series on human islets (50μM Adox 72 h vs untreated), the “PDX1 expression in glucagon-positive cells (PDX1+/GCG+ double-positive cells)” value is “nuclear PDX1-expression in many glucagon-positive cells; also recorded: many double-positive cells”. Also, in the series on human β-cells, the ARX expression level result is “no change”, the MAFA expression level entry was “decrease”, the NKX6-1 expression level result was “decrease” and the “glucagon (GCG) expression level” value was “no change”. The “insulin (INS) expression level” value with human β-cells was “no change”. In the series with human α-cells, the ARX expression level result is recorded as “increase”, the MAFA expression level entry is reported as “slight decrease”, the NKX6-1 expression level result is reported as “slight decrease” and the PDX1 expression level entry was “increase”. In addition, in the series on human α-cells, the “glucagon (GCG) expression level” value is given as “no change” and the “insulin (INS) expression level” value is given as “no change”. The “insulin granules in YFP+ (lineage-labeled α) cells” value in series [2] is given as “occurrence of insulin granules in YFP+ cells”. The “H3K4me3-enrichment (FIG. 9A legend)” value in the series with H3K27me3 (human islets treated with Adox) is “decrease”. For the same compound, in the series with H3K27me3 (setting [4]), the “H3K27me3 enrichment at genes carrying a bivalent or monovalent H3K27me3 mark in all pancreatic cell populations” value is “strong decrease”; the “H3K27me3 enrichment at the ARX, MAFA and PDX1 loci” value is “decrease; also recorded: decreased H3K27me3 levels”.
The compound “CCTCCTTCCTTGCCAACGCTGGCT (double strand) [CDKN2A (p16) promoter TALE target, 24 bp]” returned an activity (% average increase in CpG methylation) in series [3] of 17.

These data come from patent US20170056524A1, “COMPOSITIONS AND METHODS FOR TARGETED EPIGENETIC MODIFICATION” (THE TRUSTEES OF THE UNIVERSITY OF PENNSYLVANIA, priority 2014, published 2017).
